In patent US8486968B2, “Compounds” (Boehringer Ingelheim International GmbH, priority 2010, dated 2013):

Columns and labels:
[1] = target: T1, mPGES-1 (Homo sapiens, UniProt O14684); assay: A549 cell-based assay (PGE2 formation, IL-1β stimulated, 50% human serum); set-up: host or cells: A549 cells
T1 sequence (O14684 1-152): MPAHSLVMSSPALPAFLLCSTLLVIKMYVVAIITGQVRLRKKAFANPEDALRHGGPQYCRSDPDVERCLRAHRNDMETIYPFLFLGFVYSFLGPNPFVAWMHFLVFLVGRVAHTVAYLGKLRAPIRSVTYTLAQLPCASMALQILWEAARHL
Description: Although the enzymatic assay is a high throughput assay the disadvantage is that it uses a recombinant protein which is not in its natural environment. Accordingly a cellular assay was established in which a cell line of human origin (A549) expressing the mPGES-1 protein was used. In addition in order to mimic the situation in humans in which compounds can be bound to plasma proteins 50% human serum is added in the assay. By having the combination of testing mPGES-1 in a cellular environment and the presence of 50% human serum this assay has a higher relevance to judge the therapeutic potential of a mPGES-inhibitor than the pure enzyme assay.
A549 cells (ATCC: CCL-185) are grown to about 90% confluence in F-12K Nutrient Mixture (Kaighn's Mod. Gibco) containing 10% FBS in a humified incubator at 37° C. and 5% CO2. Cells were detached using Trypsin-EDTA. A549 cells were seeded in a 384-well collagene plate at a density of 7000 cells/well (50 μl) in F-12 medium containing 1% Penicillin-Streptomycin and 50% human serum. The cells were allowed to attach for 3-4 h. After that the cells were incubated for 20-24 h in F-12k medium supplemented with 50% human serum, 1% Penicillin-Streptomycin and containing IL-1β at a final concentration of 5 ng/ml as well as 10 nM arachidonic acid in the presence of a vehicle or a test compound. The total volume is 100 μl.
Concentrations of PGE2 in the cell free medium (10 μl) were measured using a commercially available HTRF kit from Cisbio (as described above). The PGE2 formation in the absence of test compound was taken as 100%.
IC50 values were derived from at 6-8 point titrations using conventional software.

[2] = target: T1, mPGES-1; assay: mPGES-1 enzyme assay (HTRF detection of PGE2); type: biochemical; set-up: made in house; host or cells: Rosetta E. coli (membrane/microsome fraction)
Description: Microsomes from Rosetta E. coli bacteria expressing recombinant human mPGES-1 can be derived as described below:
Inoculate 5 ml LB with Ampicilin (50 μg/ml) and Chloramphenicol (34 μg/ml) with bacteria from freeze culture. Incubate 8 h at 37° C. with 200 rpm. Thereafter, inoculate 500-1000 ml LB containing Amp and Chloro with the 5 ml on culture and grow to OD640 of 0.8-1.0. Chill the culture to +4° C. before induction. Induce the culture with IPTG at a final concentration of 400 μM. Express the protein at room temp 18-23° C. with 200 rpm shaking over night.
The following steps can be performed on the following day: • 1. Spin down the cells in 250 ml centrifuge flasks for 15 min at 7000 rpm (Beckmann Coulte Avanti J-E centrifuge) • 2. Dissolve the pellet from 250 ml culture in 12.5 ml homogenization buffer • 3. (15 mM Tris-HCL pH8, 1 mM EDTA pH8, […], 2.5 mM GSH, 1 Tablet Protease inhibitor per 50 ml buffer) • 4. Disintegrate the cells by sonication, 5×10 seconds at 48% amplitude of a 750 W sonifier • 5. Add 2.5 ml MgCl2 (100 mM) and DNase 12.5 μl (0.8 mg/ml) and incubate on ice for 30 min • 6. Spin down the bacteria debris and save the supernatant, 7000 rpm for 15 min • 7. Isolate the protein containing membranes in the supernatant by ultracentrifugation 120000×g for 2 hour at 4° C. (Sorvall T880 rotor). • 8. Discard the supernatant and dissolve the pellet in 20 mM Potassium phosphate buffer pH 7.4 (KH2PO4 and K2HPO4) buffer by sonication (5×10 s, 30% of a 50 W sonifier) and aliquot the enzyme and store aliquots at −80° C.
Before each experiment is performed an aliquot of the enzyme is thawed and it can then be dissolved in 0.1 M Potassium phosphate buffer pH7.4 (KH2PO4 and K2HPO4) buffer containing 2.5 mM GSH.
The aim of this assay is the determine the affinity of a test compound for the mPGES-1 enzyme.
47 μl of recombinant human mPGES-1 (˜0.5 μg protein/well) containing microsomal suspension in a buffer containing GSH, (2.5 mmol/L L-Glutathione reduced, dissolved in 0.1 mol/L Phosphat Buffer pH 7.4) is dispensed in a 384-well plate and thereafter 1 μl of the test compound(s) is/are added and incubated for 25 minutes at room temperature. The enzyme reaction is started by the addition of 2 μl PGH2 (final conc. 2 μM) dissolved in water-free Diglyme. After 60 seconds the reaction is terminated by addition of a stop solution containing FeCl2 (10 μL 0.074 mol/l FeCl2). The samples are diluted between 1:25 in PBS (Phosphate Buffered Saline). 10 μl of the diluted samples are transferred to 384-well low volume plate. In order to quantify the amount of PGE2 that has been formed, a homogenous time resolved fluorescent (HTRF) detecting of PGE2 has been performed using a commercially available kit from Cisbio according to the manufactures recommendation. This HTRF-based assay has been described in detail (see: Goedken et al., J Biomol Screen, 2008, 13(7), 619-625). Briefly, the diluted samples are mixed with 5 μl PGE2-d2 conjungate and 5 μl anti-PGE2 cryptate conjungate. After an incubation period of the plates over night, the fluorescence is measured by the use of an appropriate microplate reader.
The fluorescence of Europium cryptate (maxex=307 nm, maxem=620 nm) and d2-PGE2 (maxex=620 nm, maxem=665 nm) are measured.
The extent of the specific HTRF is measured as a ratio of the emission intensity at 665 nm vs. that at 620 nm at an excitation puls of 320 nm. The quantification plate contains also wells with different concentrations of PGE2 as calibration curve for the calculation of the PGE2 concentrations from the HTRF ratio values.
From all mPGES enzyme assay the background is subtracted and the IC50 is calculated over a nonlinear regression with conventional software.

[3] = A549 cells, IL-1β 5 ng/ml, 20-24 h, Table B, read-out: mPGES-1 inhibitory effect, IC50, cell assay
[4] = recombinant human mPGES-1 microsomes, PGH2 2 μM, Table A, read-out: mPGES-1 inhibitory effect, IC50, enzyme assay
[5] = Table C comparison of enzym and cell IC50, A549 cells, read-out: Cell IC50
[6] = Table C comparison of enzym and cell IC50, read-out: Enzym IC50

| SMILES | IC50 [1, 3] | IC50 [2, 4] | melting point | IC50 [1, 5] | IC50 [2, 6] |
| --- | --- | --- | --- | --- | --- |
| Cn1c(Nc2c(Cl)ccc(CNC(=O)C(C)(C)C)c2Cl)nc2cc(C(=O)N[C@H]3CC[C@H](C(F)(F)F)CC3)c(N(CC3CC3)C3CC3)nc21 [Example 23] | 5 nM | 1 nM |  |  |  |
| CC(C)(C)C(=O)NCc1ccc(Cl)c(Nc2nc3cc(C(=O)N[C@H]4CC[C@H](C(F)(F)F)CC4)c(N4CCOCC4)nc3n2CC(F)F)c1Cl [Example 25] | 7 nM | 4 nM |  |  |  |
| CC(C)(C)C(=O)NCc1ccc(Cl)c(Nc2nc3cc(C(=O)N[C@H]4CC[C@H](C(F)(F)F)CC4)c(N4CCC(C(F)(F)F)CC4)nc3n2C2CC2)c1Cl [Example 26] | 7 nM | 4 nM | 198 to 200 °C |  |  |
| CN(C)C(=O)Cn1c(Nc2c(Cl)ccc(CNC(=O)C(C)(C)C)c2Cl)nc2cc(C(=O)N[C@H]3CC[C@H](C(F)(F)F)CC3)c(N3CCC(C(F)(F)F)CC3)nc21 [Example 29] | 39 nM | 10 nM |  |  |  |
| Cn1c(Nc2c(Cl)ccc(CNC(=O)C(C)(C)C)c2Cl)nc2cc(C(=O)NC3CC(F)(F)C3)c(N3CCC(C(F)(F)F)CC3)nc21 [Example 35] | 16 nM | 5 nM |  |  |  |
| Cn1c(Nc2c(Cl)ccc(CNC(=O)C(C)(C)C)c2Cl)nc2cc(C(=O)NC3(c4ccc(F)cc4)CC3)c(N3CCC(C(F)(F)F)CC3)nc21 [Example 37] | 8 nM | 3 nM |  |  |  |
| Cn1c(Nc2c(Cl)ccc(CNC(=O)C(C)(C)C)c2Cl)nc2cc(C(=O)Nc3ccc(F)c(Cl)c3)c(N3CCC(C(F)(F)F)CC3)nc21 [Example 41] | 2 nM | 1 nM |  |  |  |
| CC(NC(=O)c1cc2nc(Nc3c(Cl)ccc(CNC(=O)C(C)(C)C)c3Cl)n(C)c2nc1N1CCC(C(F)(F)F)CC1)c1cccs1 (stereo not drawn) [Example 45] | 12 nM | 4 nM |  |  |  |
| O=C(N[C@H]1CC[C@H](C(F)(F)F)CC1)c1cc2nc(Nc3c(Cl)cc(F)cc3Cl)[nH]c2nc1OCC(F)(F)F [reference compound] |  |  |  | 43 nM | 2 nM |
| Cn1c(Nc2c(Cl)cc(F)cc2Cl)nc2cc(C(=O)N[C@H]3CC[C@H](C(F)(F)F)CC3)c(OCC(F)F)nc21 [reference compound] |  |  |  | 161 nM | 4 nM |
| Cn1c(Nc2cc(CNC(=O)C(C)(C)C)ccc2Cl)nc2cc(C(=O)N[C@H]3CC[C@H](C(F)(F)F)CC3)c(OCC(F)(F)F)cc21 [reference compound] |  |  |  | 89 nM | 8 nM |
| Cn1c(Nc2c(F)cccc2Cl)nc2cc(C(=O)Nc3ccc(Br)cc3)c(OCC(F)F)nc21 [reference compound] |  |  |  | 72 nM | 2 nM |
| Cn1c(Nc2cc(CNC(=O)C3(C(F)(F)F)CC3)ccc2Cl)nc2cc(C(=O)Nc3ccc(F)c(Cl)c3)c(OCC(F)F)cc21 [reference compound] |  |  |  | 8 nM | 1 nM |

The next lines start with the values.

| IC50 [1, 3] | IC50 [2, 4] | melting point | IC50 [1, 5] | IC50 [2, 6] | SMILES |
| --- | --- | --- | --- | --- | --- |
| 5 nM | 1 nM |  |  |  | Cn1c(Nc2c(Cl)ccc(CNC(=O)C(C)(C)C)c2Cl)nc2cc(C(=O)Nc3ccc(OC(F)(F)F)cc3)c(N3CCC(C(F)(F)F)CC3)nc21 [Example 24, N-(4-Trifluoromethoxyphenyl)-2-{2,6-dichloro-3-[(2,2-dimethyl-propionylamino)-methyl]-phenylamino}-5-[4-trifluoromethyl-piperidinyl]-3-methyl-3H-imidazo[4,5-b]pyridine-6-carboxamide] |
| 20 nM | 3 nM |  |  |  | CC(NC(=O)c1cc2nc(Nc3c(Cl)ccc(CNC(=O)C(C)(C)C)c3Cl)n(C)c2nc1N1CCC(C(F)(F)F)CC1)C(F)(F)F (stereo not drawn) [Example 31] |
| 12 nM | 4 nM |  |  |  | Cn1c(Nc2c(Cl)ccc(CNC(=O)C(C)(C)C)c2Cl)nc2cc(C(=O)NCC(F)(F)F)c(N3CCC(C(F)(F)F)CC3)nc21 [Example 32] |
| 8 nM | 2 nM |  |  |  | Cn1c(Nc2c(Cl)ccc(CNC(=O)C(C)(C)C)c2Cl)nc2cc(C(=O)NCCCC(F)(F)F)c(N3CCC(C(F)(F)F)CC3)nc21 [Example 33] |
| 10 nM | 2 nM |  |  |  | Cn1c(Nc2c(Cl)ccc(CNC(=O)C(C)(C)C)c2Cl)nc2cc(C(=O)NCC(F)(F)C(F)(F)F)c(N3CCC(C(F)(F)F)CC3)nc21 [Example 34] |
| 6 nM | 2 nM |  |  |  | Cn1c(Nc2c(Cl)ccc(CNC(=O)C(C)(C)C)c2Cl)nc2cc(C(=O)N[C@H](c3ccccc3)C(F)(F)F)c(N3CCC(C(F)(F)F)CC3)nc21 [Example 36] |
| 16 nM | 2 nM |  |  |  | Cn1c(Nc2c(Cl)ccc(CNC(=O)C(C)(C)C)c2Cl)nc2cc(C(=O)NCc3ccc(F)cc3C(F)(F)F)c(N3CCC(C(F)(F)F)CC3)nc21 [Example 38] |
| 13 nM | 3 nM |  |  |  | Cn1c(Nc2c(Cl)ccc(CNC(=O)C(C)(C)C)c2Cl)nc2cc(C(=O)Nc3cccc(OC(F)(F)F)c3)c(N3CCC(C(F)(F)F)CC3)nc21 [Example 40] |
| 4 nM | 2 nM |  |  |  | Cn1c(Nc2c(Cl)ccc(CNC(=O)C(C)(C)C)c2Cl)nc2cc(C(=O)NC(c3ccccn3)C(F)(F)F)c(N3CCC(C(F)(F)F)CC3)nc21 (stereo not drawn) [Example 42] |
| 6 nM | 5 nM |  |  |  | Cn1c(Nc2c(Cl)ccc(CNC(=O)C(C)(C)C)c2Cl)nc2cc(C(=O)NCc3ncccc3C(F)(F)F)c(N3CCC(C(F)(F)F)CC3)nc21 [Example 43] |
| 56 nM | 4 nM |  |  |  | Cn1c(Nc2c(Cl)ccc(CNC(=O)C(C)(C)C)c2Cl)nc2cc(C(=O)Nc3cccc(C(F)(F)F)n3)c(N3CCC(C(F)(F)F)CC3)nc21 [Example 44] |
| 8 nM | < 1 nM |  |  |  | Cn1c(Nc2c(Cl)ccc(CNC(=O)C(C)(C)C)c2Cl)nc2cc(C(=O)NCC3CC3)c(N3CCC(C(F)(F)F)CC3)nc21 [Example 46] |
